From US20090123563A1, “Pharmaceutical Preparations Comprising Insulin, Zinc Ions and Zinc-Binding Ligand” (NOVO NORDISK A/S, priority 2005, published 2009)

| SMILES | melting point [°C] |
| --- | --- |
| COc1cc(/C=C2\SC(=O)NC2=O)cc(I)c1O | 256 |
| O=C1NC(=O)/C(=C/c2ccc3cc(O)ccc3c2)S1 | 310 to 314 |
| O=C1NC(=O)/C(=C/c2c[nH]c3ccc([N+](=O)[O-])cc23)S1 | 330 to 333 |
| COc1cc(OCc2c(F)cccc2[N+](=O)[O-])cc(OC)c1/C=C1\SC(=O)NC1=O | 255 to 256 |
| CN(C)c1ccc(/C=C/C=C2\SC(=O)NC2=O)cc1 | 259 to 263 |
| CC(/C=C1\SC(=O)NC1=O)=C\c1ccccc1 | 203 to 210 |
| O=C1NC(=O)/C(=C/C(Cl)=C/c2ccccc2)S1 | 251 to 254 |
| c1cc(COc2ccc3ccccc3c2)cc(-c2nnn[nH]2)c1 | 200 to 202 |

Further lines, results first:

| melting point [°C] | SMILES |
| --- | --- |
| 152 to 154 | O=C1NC(=O)/C(=C/c2c(Cl)cccc2Cl)S1 |
| 331 to 333 | COc1cc(O)cc(OC)c1/C=C1\SC(=O)NC1=O |
| 104 to 105 | Cc1cccc(C)c1/C=C1\SC(=O)NC1=O |
| 241 to 242 | COc1cccc(OC)c1/C=C1\SC(=O)NC1=O |
| 265 to 266 | O=C1NC(=O)/C(=C/c2cc3ccccc3o2)S1 |
| 338 to 347 | O=C1NC(=O)/C(=C/c2cc3ccccc3[nH]c2=O)S1 |
